# Reference: US20080182853A1, “Methods of neuroprotection by cyclin-dependent kinase inhibition” (priority 2006, published 2008)
# What was measured:
# cortical neurons [1] = system: cortical neurons
# Description: Treatment with 1 μM PD 0332991 (obtained from Pfizer) was carried out for 12 h in complete medium; H2O2 was added at the indicated times and doses.
# Analysis of neuronal survival and apoptosis. Neuronal viability was assessed by quantifying apoptotic nuclei following the treatments. Cells were fixed and stained with DNA-binding dye propidium iodide (PI) (10 μg/ml; Sigma), and the percentage of cells with apoptotic nuclei was calculated as described previously (Kruman, I. I., et al. 2002. J. Neurosci. 22:1752-1762; Tenneti, L. and S. A. Lipton. 2000. J Neurochem. 74:134-142). Nuclear staining was viewed and photographed using a Zeiss fluorescence microscope. Apoptosis was also determined by immunoblot analysis for activated (cleaved) caspase-3 (polyclonal; 1 μg/ml; Upstate Cell Signaling Solutions), cleaved Mcm3 (polyclonal, 1:200; Santa-Cruz), Mcm2 (BM28; monoclonal; 1:200; BD Biosciences), and fractin (cleaved β-actin; 1:3000; Chemicon) in cellular extracts from corresponding neuronal 5 cultures.
# cortical neurons [2] = settings: 5 μM H2O2, 6 h; neutral comet assay; FIG. 2A
# Description: Single Cell Gel Electrophoresis (Comet assay). DNA damage was assessed using the alkaline or neutral single-cell gel electrophoresis (comet assay) method (Kruman, I. I., et al. 2004. Neuron. 41:549-561; Kruman, I. I., et al. 2002. J Neurosci. 22:1752-176229). We used the neutral comet assay which is specific for detecting DSBs (Wojewodzka, M., et al. 2002. Mutat Res. 518:9-20). Following treatment, neurons were scraped and cell suspensions (˜10,000 cells) were embedded into 0.5% low melting agarose on slides (Trevigen, Gaithersburg, Md.). After treatment with cold lysis buffer (Trevigen) containing 1% Triton X-100 and 10% DMSO, the slides were incubated for 1 h in freshly prepared electrophoresis buffer, 300 mM sodium acetate, 100 mM Tris HCl, pH 8.3 (neutral comet assay) or 300 mM NaOH, 1 mM EDTA, pH>13 (alkaline comet assay). Then electrophoresis was performed at 14V and 60 mA for 1 h (neutral comet assay) or at 25V and 300 mA for 30 min (alkaline comet assay) at 8° C., stained with SYBR green (Trevigen), and analyzed using an Olympus BX51 fluorescent microscope and the comet assay image analysis software (Loats Associates Inc.). […] Images of 50 randomly selected cells were analysed from each slide. […]
# neuronal apoptosis = settings: in vitro; cited from earlier work
# ischemia models = settings: in vivo; cited from earlier work
# primary cortical neurons = assay: H2O2-induced apoptosis in cultured cortical neurons (apoptotic nuclei count); type: cell-based, rat; settings: 12 h pretreatment with 1 μM PD 0332991, then 100 μM H2O2 for 18 h; Hoechst 33342; FIG. 4B
# Description: All experiments involving the use of animals were approved by the IACUC at the Georgetown University Medical Center, Washington, D.C. Primary cortical cell cultures were established from E18 Sprague-Dawley rats obtained from Jackson Laboratories.
# Following dissociation by mild trypsinization and trituration, cells were seeded onto plastic dishes or chamber slides precoated with 0.025 μg/ml poly-L-lysine, at a density of 1.3×10^3 neurons/mm^2 in Neurobasal medium containing B-27 supplement, 1 mM HEPES, 2 mM […] and 0.001% gentamycin sulfate; fresh medium was replaced after 30 minutes.
# Analysis of neuronal survival and apoptosis.
# pRb phosphorylation = pRb phosphorylation by Western blot in cortical neurons; type: cell-based, rat; settings: 12 h pretreatment with 1 μM PD 0332991, then 100 μM H2O2 for 6 h; FIG. 4A
# Description: Immunoblot analyses. For total cell lysates, cortical neurons were lysed in ice-cold buffer consisting of 63 mM Tris, 2 mM EDTA, 2 mM EGTA, 2% sodium dodecyl sulfate, 10% glycerol, and a protease inhibitor cocktail (Sigma), pH 6.0. For the preparation of nuclear lysates (for analysis of cyclin D1 and γ-H2AX), cortical neurons were lysed in ice-cold buffer containing protease inhibitor cocktail (Sigma) and incubated with hydrochloric acid (0.2 M) on ice for 30 min.
# As a loading control we used anti-β-actin or anti-glyceraldehyde-3-phosphate dehydrogenase (GAPDH) antibodies.
# Protein bands were visualized with horseradish peroxidase-conjugated secondary antibodies (1:3000; Jackson Immunological Research Laboratories Inc.) and enhanced using chemiluminescence (ECL kit, Amersham Corp.). Densitometric analysis of the blots were performed using the Kodak software ID 3.5.3 USB, and the intensity of the signal (normalized to the β-actin signals) was expressed as a ratio of the control signals.
# CDK4 and CDK6 = settings: Fry et al. 2004; cited from earlier work
# tumor = settings: mice; cited from earlier work
structure (smiles),measurement,setting,value
"OO [H2O2, hydrogen peroxide]",apoptosis of cortical neurons,"cortical neurons [1]; 5 μM H2O2, by 24 h or 48 h",did not induce apoptosis
same,apoptotic death of cortical neurons,"cortical neurons [1]; 100 μM H2O2, FIG. 1",significant apoptotic death beginning by 9 h
same,DNA damage (comet tails),cortical neurons [2],significant increase of DNA damage
CN1CC[C@H](c2c(O)cc(O)c3c(=O)cc(-c4ccccc4Cl)oc23)[C@H](O)C1 [flavopiridol],prevention of neuronal apoptosis,neuronal apoptosis,very potent in preventing neuronal apoptosis in vitro
same,protection in ischemia models,ischemia models,protective
CC(=O)c1c(C)c2cnc(Nc3ccc(N4CCNCC4)cn3)nc2n(C2CCCC2)c1=O [PD 0332991],extent of apoptosis,primary cortical neurons,significant reduction in the extent of apoptosis
same,phosphorylation of pRb,pRb phosphorylation,down-regulates phosphorylation of pRb
same,specificity as inhibitor of CDK4 and CDK6,CDK4 and CDK6,highly specific inhibitor of CDK4 and CDK6
same,tumor regression,tumor,effective in causing tumor regression in mice
